Data: US11667667B2, “Steroid derivative FXR agonist” (Chia Tai Tianqing Pharmaceutical Group Co., Ltd., priority 2016, dated 2023)

Tests used:
[1] = molecular target: T1, Glutathione-S-transferase-labeled FXR human protein (Homo sapiens, UniProt Q96RI1); test: FXR biochemical experiment (AlphaScreen, coactivator recruitment); settings: for EC50: AlphaScreen, GST-FXR human protein + biotin-labeled steroid receptor coactivator, read-out: FXR enzyme activity EC50; for Emax: ratio of highest signal of the compound to that of the reference compound, read-out: FXR enzyme activity Efficacy
T1 construct: purchased Invitrogen
T1 sequence (Q96RI1 1-486): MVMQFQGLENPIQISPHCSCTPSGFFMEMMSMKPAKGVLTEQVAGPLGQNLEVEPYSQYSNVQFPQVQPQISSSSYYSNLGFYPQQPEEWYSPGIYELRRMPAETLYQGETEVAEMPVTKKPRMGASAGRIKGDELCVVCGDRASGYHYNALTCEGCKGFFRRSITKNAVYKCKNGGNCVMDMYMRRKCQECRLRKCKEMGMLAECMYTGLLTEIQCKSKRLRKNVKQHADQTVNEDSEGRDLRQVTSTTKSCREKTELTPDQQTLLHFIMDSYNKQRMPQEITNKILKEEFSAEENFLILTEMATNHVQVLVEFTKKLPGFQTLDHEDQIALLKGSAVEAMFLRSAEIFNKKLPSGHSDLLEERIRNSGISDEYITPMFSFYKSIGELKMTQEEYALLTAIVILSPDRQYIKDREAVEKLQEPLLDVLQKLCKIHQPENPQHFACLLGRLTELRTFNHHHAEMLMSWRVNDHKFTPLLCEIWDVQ
Experimental: FXR Biochemical Experiment Experimental Purpose: The activation effect of the compound on FXR binding reaction was detected by AlphaScreen. […] Protein: Glutathione-S-transferase-labeled FXR human protein (Invitrogen) 2. Co-activator: Biotin-labeled steroid receptor coactivator (Anaspec) 3. […] Compound Dilution: The compound to be tested was prepared as a 40 μM DMSO solution, and then diluted 3-fold to 10 concentration points. The reference compound was prepared as a 400 μM DMSO solution, and then diluted 1.5-fold to 10 concentration points. The diluted DMSO solution was added to the wells of a 384-well plate in a volume of 150 nL per well. 2. […] 4. […] The operation during the experimental process was protected from light. The incubation was performed for 1 hour at room temperature. 5. […] The operation during the experimental process was protected from light. The incubation was performed for 1 hour at room temperature. 6. EC50 test: Envision was used with excitation at 680 nm to read the […] signals at 520-620 nm. 7. Analytical data: The data were analyzed via using Prism 5.0, and the EC50 values of the activation effects of the compounds were calculated.

[2] = molecular target: T2, FXR (FXR HEK 293T DA cell line) (Homo sapiens, UniProt Q96RI1); test: FXR cell experiment (β-lactamase reporter gene, GeneBLAzer); assay type: cell-based; settings: for EC50: FXR HEK 293T DA cells, β-lactamase reporter, 16 hours; for Emax: HEK-293T, read-out: FXR cell activity Efficacy;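 for FXR cell activity Efficacy: Emax relative to maximal signal of reference agonist chenodeoxycholic acid (CDCA)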
T2 construct: expressed in transfected cells; host or cells: HEK 293T (FXR HEK 293T DA)
Experimental: Compound Dilution: The compound to be tested was prepared as a 100 μM DMSO solution, and then the compound was diluted 3-fold to 10 concentration points. The reference compound was prepared as a 100 μM DMSO solution, and then diluted 1.3-fold to 10 concentration points. The diluted DMSO solution was added to the wells of a 384-well plate in a volume of 200 nL per well. 2. […] The 384-well microplate was incubated at 37° C., 5% CO2 for 16 hours. 4. 6 μL of 1 mM LiveBLAzer™-FRET B/G (CCF4-AM) substrate was mixed with 60 μL of B solution and 934 μL of C solution, and added to the wells of the 384-well plate in a volume of 8 μL per well. […] The 384-well microplate was incubated in dark for 2 hours at room temperature. 6. […] 7.

[3] = Pharmacokinetics in mice administrated with single compound; assay type: in vivo, mice (C57BL/6J); settings: for drug exposure compared with control compound INT-747 / peak concentration compared with control compound INT-747: mice, oral administration at the same dosage
Experimental: Pharmacokinetics in Mice Administrated with Single Compound:
12 male mice (C57BL/6J) were randomly divided into two groups, i.e., 6 mice per group. […] Plasma (using K2-EDTA as anticoagulant) samples were taken at 0.083, 0.25, 0.5, 1, 2, 4, 6, 8 and 24 hours in the intravenous administration group after administration; and plasma samples were taken at 0.25, 0.5, 1, 2, 4, 6, 8 and 24 hours in the oral administration group after administration. For 6 animals in each group, blood samples were collected for 3 animals at one time point. The first batch of 3 animals was alternately sampled with the second batch of 3 animals. Plasma sample analysis was performed by using LC-MS/MS. The resultant plasma concentrations were plotted with repect to time, and PK parameters were calculated by using Phoenix WinNonlin 6.3.

[4] = Liver-blood ratio experiment of mice via cassette dosing; assay type: in vivo, mice (C57BL/6J); settings: for Concentration in liver / Concentration in plasma / Concentration ratio of liver to plasma: oral cassette 2 mg/kg
Experimental: Liver-Blood Ratio Experiment of Mice Via Cassette Dosing
6 male mice (C57BL/6J) were grouped as an oral administration group. 5 kinds of the developed drugs were contained in the formulation, and intragastrical administration was performed at a dose of 2 mg/kg/compound (the vehicle was 0.5% HPMC aqueous solution). The five compounds were firstly and respectively dissolved in the vehicle, and sonicated or whirled to form a 1 mg/mL solution (clear solution or suspension), respectively; and then the solutions of the five compound were mixed in equal volumes (1:1:1:1:1, v:v:v:v:v) into a glass bottle. After intragastrical oral administration, plasma and liver tissue samples were collected from 3 animals at 0.5 h after administration; corresponding samples were collected from the other 3 animals at 3 h after administration. After collection, the liver tissue was homogenized by using ice-cold homogenization buffer (methanol:15 mM PBS buffer (pH 7.4)=1:2, v:v) based on the ratio of liver weight:homogenization buffer volume=1:3. Plasma and liver tissue samples were analyzed by using a five-in-one LC-MS/MS analysis method developed in advance. The concentrations of plasma and liver tissue homogenate were obtained, and the concentration ratios of liver tissue to plasma were calculated by using Excel.

[5] = mouse, plasma, male C57BL/6J mice, oral 10 mg/kg
[6] = oral, same dosage, at 0.5 h and 3 h

T2 sequence (Q96RI1 with tags, fused parts or gaps limits assumed): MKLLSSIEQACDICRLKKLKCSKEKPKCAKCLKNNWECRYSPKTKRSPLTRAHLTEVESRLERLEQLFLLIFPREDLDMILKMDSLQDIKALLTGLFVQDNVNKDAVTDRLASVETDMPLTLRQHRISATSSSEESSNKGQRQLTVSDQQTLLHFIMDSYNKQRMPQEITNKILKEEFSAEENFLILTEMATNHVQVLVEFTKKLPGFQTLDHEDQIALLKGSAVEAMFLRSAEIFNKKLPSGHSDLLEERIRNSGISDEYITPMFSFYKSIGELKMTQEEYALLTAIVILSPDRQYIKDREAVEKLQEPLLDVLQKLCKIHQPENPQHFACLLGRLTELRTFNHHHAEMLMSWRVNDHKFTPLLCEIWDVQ

SMILES	EC50 [1]	Emax [1]	EC50 [2]	Emax [2]	other results
CC[C@H]1[C@@H](O)[C@@H]2[C@H](CC[C@]3(C)[C@@H]([C@H](C)CCN4CC(C(=O)O)CCC4=O)CC[C@@H]23)[C@@]2(C)CC[C@@H](O)C[C@@H]12 (some centres unmarked) [Example 1]	900 nM	320%	17900 nM	134%	
CC[C@@H]1C2C[C@H](O)CC[C@]2(C)[C@H]2CC[C@]3(C)[C@@H]([C@H](C)CCn4cc(C(=O)O)cn4)CC[C@H]3[C@@H]2[C@@H]1O (some centres unmarked) [Example 4]	720 nM	334%	1870 nM	131%	
CC[C@H]1[C@@H](O)[C@@H]2[C@H](CC[C@]3(C)[C@@H]([C@H](C)CCn4cc(C(=O)O)ccc4=O)CC[C@@H]23)[C@@]2(C)CC[C@@H](O)C[C@@H]12 [Example 5]	90 nM	134%	570 nM	190%	
CC[C@H]1[C@@H](O)[C@@H]2[C@H](CC[C@]3(C)[C@@H]([C@H](C)CCn4ccc(C(=O)O)cc4=O)CC[C@@H]23)[C@@]2(C)CC[C@@H](O)C[C@@H]12 [Example 6]	360 nM	375%	5160 nM	132%	
CC[C@H]1[C@@H](O)[C@@H]2[C@H](CC[C@]3(C)[C@@H]([C@H](C)CCOc4cccc(C(=O)O)c4)CC[C@@H]23)[C@@]2(C)CC[C@@H](O)C[C@@H]12 [Example 7]	30 nM	360%	60 nM	140%	
CC[C@H]1[C@@H](O)[C@@H]2[C@H](CC[C@]3(C)[C@@H]([C@H](C)CCOc4cc(C(=O)O)ccn4)CC[C@@H]23)[C@@]2(C)CC[C@@H](O)C[C@@H]12 [Example 9]	160 nM	407%	140 nM	130%	
CC[C@H]1[C@@H](O)[C@@H]2[C@H](CC[C@]3(C)[C@@H]([C@H](C)CCOc4ccc(C(=O)O)nc4)CC[C@@H]23)[C@@]2(C)CC[C@@H](O)C[C@@H]12 [Example 10]	60 nM	188%	200 nM	138%	
CC[C@H]1[C@@H](O)[C@@H]2[C@H](CC[C@]3(C)[C@@H]([C@H](C)CCOc4cncc(C(=O)O)c4)CC[C@@H]23)[C@@]2(C)CC[C@@H](O)C[C@@H]12 [Example 11]	30 nM	241%	100 nM	132%	drug exposure compared with control compound INT-747 [3]: higher; peak concentration compared with control compound INT-747 [3]: higher; AUC [3, 5]: 5.17 µM·h; Cmax [3, 5]: 1430 nM; Tmax [3, 5]: 2 h
CC[C@H]1[C@@H](O)[C@@H]2[C@H](CC[C@]3(C)[C@@H]([C@H](C)CCCn4cc(C(=O)O)ccc4=O)CC[C@@H]23)[C@@]2(C)CC[C@@H](O)C[C@@H]12 [Example 17]	600 nM	313%	2500 nM	131%	
CC[C@H]1[C@@H](O)[C@@H]2[C@H](CC[C@]3(C)[C@@H]([C@H](C)CCc4cccc(C(=O)O)c4)CC[C@@H]23)[C@@]2(C)CC[C@@H](O)C[C@@H]12 [Example 19]	150 nM	251%	370 nM	143%	
CC[C@H]1[C@@H](O)[C@@H]2[C@H](CC[C@]3(C)[C@@H]([C@H](C)CCOc4ccc(C(=O)O)cn4)CC[C@@H]23)[C@@]2(C)CC[C@@H](O)C[C@@H]12 [Example 22]		249%			drug exposure compared with control compound INT-747 [3]: higher; peak concentration compared with control compound INT-747 [3]: close to; bioavailability ([3]; mouse, plasma, male C57BL/6J mice, oral 10 mg/kg vs intravenous 2 mg/kg): 34%; Concentration in liver ([4]; 0.5 h): 1959 nM; Concentration in plasma ([4]; 0.5 h): 83 nM; Concentration ratio of liver to plasma ([4]; 0.5 h): 24; Concentration in liver ([4]; 3 h): 701 nM; Concentration in plasma ([4]; 3 h): 45 nM; Concentration ratio of liver to plasma ([4]; 3 h): 16; drug concentrations in the liver compared with control compound [4, 6]: higher; liver/blood concentration ratios compared with control compound [4, 6]: higher
CC[C@H]1[C@@H](O)[C@@H]2[C@H](CC[C@]3(C)[C@@H]([C@H](C)CCOc4ncc(C(=O)O)cc4Cl)CC[C@@H]23)[C@@]2(C)CC[C@@H](O)C[C@@H]12 [Example 23]		248%		150%	drug exposure compared with control compound INT-747 [3]: higher; peak concentration compared with control compound INT-747 [3]: higher
CC[C@H]1[C@@H](O)[C@@H]2[C@H](CC[C@]3(C)[C@@H]([C@H](C)CCOc4ncccc4C(=O)O)CC[C@@H]23)[C@@]2(C)CC[C@@H](O)C[C@@H]12 [Example 26]	130 nM	280%			Concentration in liver ([4]; 0.5 h): 3904 nM; Concentration in plasma ([4]; 0.5 h): 387 nM; Concentration ratio of liver to plasma ([4]; 0.5 h): 10; Concentration in liver ([4]; 3 h): 358 nM; Concentration in plasma ([4]; 3 h): 18 nM; Concentration ratio of liver to plasma ([4]; 3 h): 20; drug concentration in the liver compared with control compound ([4]; oral, same dosage, at 0.5 h): higher; liver/blood concentration ratios compared with control compound [4, 6]: higher
